Measured values reported in US9278081B2, “Extracts from Eucalyptus camaldulensis for the treatment of hyperglycemia and hypertension” (The University of the West Indies, priority 2012, dated 2016).
Values joined by “and” are separate entries in the source; they are usually repeats but may differ in a detail not shown here. Equal entries are not always repeated. “Also recorded” adds a separate entry of the source.

Experiments:
[1] = test system: rats; assay: Haemodynamic parameters (blood pressure and heart rate), non-invasive CODA machine; type: in vivo; settings: for effect on mean arterial blood pressure (in words): vs DMSO; for effect on systolic blood pressure (in words): vs DMSO and captopril
Description: A non-invasive method was used to measure the blood pressure and heart rate of the rats using the CODA machine from Kent Scientific Corporation. The rats were placed in a restraint (rat holder), to reduce agitation, and then placed on a warming pad of the machine (to reduce anxiety). The occlusion and volume pressure recording cuffs (O-cuff and VPR-cuff respectively) were placed onto the tail of the animal in that order respectively, in order to record the readings. The O-cuff terminates blood flow to the tail and then dilates slowly allowing for the physiological readings to be obtained from the returning blood flow, which is determined by the VPR sensor. The VPR-cuff is then used to measure the arterial pulsations as blood returns to the tail and it begins to swell. As the tail begins to swell the systolic blood pressure is measured, while the diastolic blood pressure is calculated when swelling stops.
The rats were trained within the restrain for three to four days prior to the measurements in order to reduce errors and an additional acclimatization period was done to allow the rats to relax prior to the basal blood pressure readings. […] The systolic and diastolic pressures, mean arterial pressure and the heart rate per minute was measured and about 20-25 readings were recorded and timed for approximately 30 minute including an allowance for acclimatization. […] Non-invasive blood pressure Measurement in Mice. […] Humana Press, which is herein incorporated by reference in its entirety.
A non-invasive method was used to measure the blood pressure and heart rate of the rats using the CODA-6-non-invasive machine from Kent Scientific Corporation. The rats were placed in a restraint (rat holder), to reduce agitation, which was then placed on a warming pad of the machine (to reduce anxiety). The occlusion and volume pressure recording cuffs (O-cuff and VPR-cuff respectively) were placed on to the tail of the animal in that order respectively, in order to record the readings. The O-cuff terminates blood flow to the tail and then dilates slowly allowing for the physiological readings to be obtained from the returning blood flow which is determined by the VPR sensor. The VPR-cuff then measured the arterial pulsations as blood returns to the tail and begins to swell. As the tail begins to swell the systolic blood pressure is measured, while the diastolic blood pressure is calculated when swelling stops.
The systolic and diastolic blood pressure, mean arterial pressure and the heart rate per minute was measured and about 20-25 readings were recorded and timed for approximately 30 minutes including acclimatization (FIGS. 17-28). […] Non-invasive blood pressure Measurement in Mice. […] Humana Press, which is herein incorporated by reference in its entirety.

[2] = test system: normoglycaemic Sprague-Dawley rats; assay: Oral Glucose Tolerance Test (OGTT), samples administered intravenously; type: in vivo; settings: for effect on blood glucose concentration (in words): IV OGTT vs DMSO control and/or metformin; for Hypoglycaemic effect compared with control: combinations of oleic:palmitic acids, IV OGTT vs DMSO
Method: Crude hexane, ethyl acetate, and methanol extracts (50 mg/kg BW) were administered intravenously to normoglycaemic Sprague-Dawley rats. The Oral Glucose Tolerance Test (OGTT) was then carried out using the Accu-Check Advantage II glucose kit to examine their effect on blood glucose concentration. […] A comparison was carried out using metformin (25 mg/kg BW).
Crude hexane, ethyl acetate, and methanol extracts (50 mg/kg BW) were administered intravenously to normoglycaemic Sprague-Dawley rats. The Oral Glucose Tolerance Test (OGTT) was then carried out using the Accu-Check Advantage II glucose kit to examine their effect on blood glucose concentration.
Crude hexane, ethyl acetate, and methanol extracts (50 mg/kg BW) were administered intravenously to normoglycaemic Sprague-Dawley rats.
The dosage of the extracted fr1dbe (30 mg/kg BW) and the glucose loads (1.75 g/kg BW were administered to the rats intravenously and orally, respectively. The extract was administered intravenously in order to reduce the amounts of sample that were used for the bioassays. The volume of the negative control/carrier agent (DMSO) used was approximately 0.3 mL.
In order to determine the efficacy of the isolated compounds, a known oral hypoglycaemic drug, metformin was used to do a comparison. Metformin was obtained from Sigma-Aldrich (Cat. No. d15, 095-9) and OGTTs were done via intravenous (FIGS. 7-13) and oral administration (FIGS. 14-16).

[3] = test system: normoglycaemic Sprague-Dawley rats; assay: Oral Glucose Tolerance Test (OGTT), samples administered orally (gavage); type: in vivo; settings: 900 mg/kg BW orally vs water
Method: The hypoglycaemic principles of E. camaldulensis were also administered orally. Preliminary OGTT experiments at 200 and 500 mg/kg BW were done, and as a result the dosage was increased to 700 and 900 mg/kg BW. The glucose tolerance curves (GTC) were obtained similarly to the OGTT done via intravenous administration, in that the compound was administered after the fasting blood sample was obtained, however via a oral gavage (FIGS. 14-16).
A comparison was done of the oral administration of the fatty acids with the respective oil on the blood glucose concentration by using the OGTT done in order to deduce their effect. Oleic and palmitic acids are major constituents of olive oil and coconut oil respectively. As such, comparisons were made after OGTTs were carried out to determine the effect of olive oil, coconut oil and the combined product (2.3 olive oil:1 coconut oil), on blood glucose concentration.
An analysis of glucose tolerance curves to compare olive oil, FR2DBS (oleic acid) and the combined oil (FR2DBW; 2.3 olive oil:1 coconut oil) at 900 mg/kg BW vs the control (water) all administered orally, was conducted. […] See also FIG. 29.

[4] = Solubility; type: physicochemical
[5] = test system: rats; assay: Post-prandial blood insulin level, Mercodia ELISA; type: in vivo; settings: 30 mg/kg BW IV in DMSO
Method: This was carried out using the Mercodia ELISA Diagnostic kit in order to deduce the plasma insulin and glucagon levels respectively. These levels were used to determine the effect of the compound fr1dbe, on glucose homeostasis, when compared with a positive methformin and a DMSO negative control.
The samples were administered intravenously and orally at their respective dosages. After 15 minutes 75 mg/kg BW of sodium pentabarbitol was administered to the rats via an intraperitoneal injection. Blood samples were then obtained from the renal artery of the rats and collected in the (red) vacutainer for the serum sample. The samples were then centrifuged at 3,000 r.p.m. for 10 minutes and stored at −20° C. until used.
The Mercodia ELISA is a direct technique utilizing two monoclonal antibodies of the insulin molecule, one of which binds to the microtitre well, while the other binds to the insulin within the sample. When the unbound antibody is removed, a reaction with 3,3′,5,5′-tetramethylbenzidine aids in detection and spectophotometric analysis after the reaction is stopped.
The enzyme conjugate solution and wash buffer solution were prepared prior to the experiment. 10 μL of the calibrators, samples and controls were pipetted into the microtitre wells in duplicate. […] The ELISA plate was read immediately at an optical density at 450 nm and the results calculated. […]

[6] = general description of eicosane; cited from earlier work
[7] = 50 mg/kg BW, 10 minute interval
[8] = 50 mg/kg BW, 20 minute interval
[9] = 30 mg/kg BW intravenously, 90 minute interval (glycaemic peak)
[10] = 30 mg/kg BW, 10 minute interval
[11] = 30 mg/kg BW, 15 minute interval
[12] = 30 mg/kg BW, 20 minute interval

Question: What does the source list for `CCCCCCCCCCCCCCCC(=O)O` [FR1DBY, palmitic acid]?
Answer: diastolic blood pressure (DBP) [1, 7]: 81.93±1.74 mmHg; heart rate [1, 7]: 372.4 ± 3.07 beats/min; mean arterial pressure (MAP) [1, 7]: 95.67±1.77 mmHg; systolic blood pressure (SBP) [1, 7]: 123.42±1.27 mmHg; systolic blood pressure (SBP) ([1]; 50 mg/kg BW, 15 minute interval): 139.0±3.5 mmHg; diastolic blood pressure (DBP) [1, 8]: 93.79±3.14 mmHg; mean arterial pressure (MAP) [1, 8]: 104.23±3.08 mmHg; blood glucose concentration [2, 9]: 5.4 ± 0.163 mmol/L; difference in blood glucose from the control ([2]; 50 mg/kg BW IV, 90 minute interval, vs DMSO): 1.06 mmol/L; blood glucose concentration ([2]; 50 mg/kg BW intravenously, 90 minutes interval): 5.26 ± 0.183 mmol/L; effect on blood glucose concentration (in words) [2]: same effect as Metformin; effect on blood glucose concentration (in words) ([2]; listed as commercially available palmitic acid): able to significantly lower the blood glucose concentration; more effective dosage (hypoglycaemic effect) ([2]; IV OGTT, dose comparison): 50 mg/kg BW; Hypoglycaemic effect compared with control [2]: Significant; effect on blood glucose level (in words) [3]: able to significantly lower the area under the glucose tolerance curve; also recorded: able to lower the blood glucose concentration

Question: For `CCCCCCCC/C=C\CCCCCCCC(=O)O` [FR2DBS, oleic acid], which “diastolic blood pressure (DBP)” value [1, 10] is on record?
Answer: The value was 93.42±1.74 mmHg.

Question: What about the heart rate [1, 10] of the same compound?
Answer: The heart rate was 389 ± 7.27 beats/min.

Question: And the “diastolic blood pressure (DBP)” value [1, 11]?
Answer: Its value is 93.21±1.33 mmHg.

Question: What about the “mean arterial pressure (MAP)” value [1, 12] of the same compound?
Answer: The value was 100.43±1.39 mmHg.

Question: And the “effect on mean arterial blood pressure (in words)” value ([1]; 30 mg/kg BW)?
Answer: The value was “significant decrease”.

Question: What about the “effect on systolic blood pressure (in words)” value ([1]; 30 mg/kg BW) of the same compound?
Answer: The value was “very low and comparable to the effect caused by captopril”.

Question: And the blood glucose concentration [2, 9]?
Answer: The blood glucose concentration was 5.23 ± 0.14 mmol/L.

Question: What about the “effect on blood glucose concentration (in words)” value [2] of the same compound?
Answer: The value was “significantly lower than the control”.

Question: And the “Hypoglycaemic effect compared with control” value [2]?
Answer: Its value is “Significant”.

Question: What about the “effect on blood glucose level (in words)” value [3] of the same compound?
Answer: Its value is “able to lower the blood glucose concentration”.

Question: And the “effect on blood glucose level (in words)” value ([3]; listed as oleic acid)?
Answer: Its value is “able to reduce the post-prandial glucose level”.

Question: With `C[C@H](CS)C(=O)N1CCC[C@H]1C(=O)O` [captopril, reference compound] as the compound, how does the “diastolic blood pressure (DBP)” value [1, 10] read?
Answer: The value was 91.09±1.90 mmHg and 91±1.90 mmHg.

Question: And the heart rate [1, 10]?
Answer: Its heart rate is 413 beats/min and 412 beats/min.

Question: And the “mean arterial pressure (MAP)” value [1, 10]?
Answer: Its value is 110.86±1.71 mmHg.

Question: What about the “systolic blood pressure (SBP)” value [1, 10] of the same compound?
Answer: Its value is 131.35±1.50 mmHg and 130.92±1.50 mmHg and 130.93±1.50 mmHg.

Question: What about the “diastolic blood pressure (DBP)” value [1, 11] of the same compound?
Answer: The value was 91.19±1.37 mmHg.

Question: What about the heart rate [1, 11] of the same compound?
Answer: The heart rate was 401.0±6.28 BPM.

Question: What about the “diastolic blood pressure (DBP)” value [1, 12] of the same compound?
Answer: The value was 93.30±1.58 mmHg.

Question: What about the “mean arterial pressure (MAP)” value [1, 12] of the same compound?
Answer: The value was 105.07±2.06 mmHg.

Question: And the heart rate ([1]; 30 mg/kg BW, first 10 minutes)?
Answer: The heart rate was 399.93±6.91 BPM.

Question: With `CCCCCCCCCCCCCCCCCCCC` [FR1DBE, eicosane] as the compound, how does the solubility in water [4] read?
Answer: The solubility in water was “not soluble in water”.

Question: And the heart rate [1, 10]?
Answer: Its heart rate is 386 ± 7.91 beats/min.

Question: What about the “systolic blood pressure (SBP)” value [1, 10] of the same compound?
Answer: Its value is 118.42±1.87 mmHg.

Question: What about the “diastolic blood pressure (DBP)” value [1, 11] of the same compound?
Answer: Its value is 84.0±0.98 mmHg.

Question: And the “systolic blood pressure (SBP)” value [1, 11]?
Answer: Its value is 122.21±1.1 mmHg.

Question: And the “effect on mean arterial blood pressure (in words)” value ([1]; 30 mg/kg BW)?
Answer: Its value is “significantly reduced”.

Question: What about the “effect on systolic blood pressure (in words)” value ([1]; 30 mg/kg BW) of the same compound?
Answer: The value was “significantly reduced”.

Question: What about the blood glucose concentration ([2]; 30 mg/kg BW intravenously, 60 minutes interval (fasting region)) of the same compound?
Answer: The blood glucose concentration was 3.7 ± 0.154 mmol/L.

Question: And the blood glucose concentration ([2]; 30 mg/kg BW intravenously, 90 minute interval (glycaemic peak), listed as fr1dbe)?
Answer: Its blood glucose concentration is 4.71 ± 1.43 mmol/L.

Question: What about the blood insulin level ([5]; after 3½ hours of administration (210 minute interval)) of the same compound?
Answer: Its blood insulin level is 0.259 ± 0.03 µg/L.

Question: And the blood insulin level ([5]; after the 90 minute interval)?
Answer: The blood insulin level was 0.214 ± 0.02 µg/L.

Question: And the solubility in alcohol [6]?
Answer: Its solubility in alcohol is “soluble in alcohol”.

Question: For `CN(C)C(=N)N=C(N)N` [metformin, reference compound], which “decrease in the blood sugar level compared with the control” value ([2]; 25 mg/kg BW IV, 90 minute interval, vs DMSO) is on record?
Answer: Its value is 1.26 mmol/L.

Question: What about the blood glucose concentration ([2]; 25 mg/kg BW intravenously, 90 minute interval) of the same compound?
Answer: Its blood glucose concentration is 5.07 ± 0.089 mmol/L and 5.07 ± 0.09 mmol/L.

Question: And the blood glucose concentration ([2]; 25 mg/kg BW intravenously, 90 minute interval, listed as Metformin)?
Answer: Its blood glucose concentration is 5.06 ± 0.089 mmol/L and 5.07 ± 0.089 mmol/L.
